From patent US10383880B2 (Reset Therapeutics, Inc., priority 2012, dated 2019) come the findings set out here.

The subject of the test is Per2-dLuc U2OS reporter cells. The test is described as follows: Per2 assay for evaluating the potency of test compounds (high-throughput circadian assay). Conditions: Homo sapiens, U2OS, stable U2OS reporter cells harboring Per2-dLuc; luminescence monitored over 4-5 days at 35° C. The class given is cell-based. The gist of the method: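 After 24 h culture, U2OS cells carrying Per2-dLuc were serum-shock synchronized into explant medium with 1.0 mM luciferin (10 mM HEPES pH 7.0) and compound in 0.5% DMSO. Luminescence was recorded over 4–5 days at 35 °C. Circadian period, amplitude and phase were derived, and EC50 calculated.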

The structures appear in SMILES notation.

In turn, `CC1CC(N(CC(C)(O)Cn2c3ccc(F)cc3c3cc(F)ccc32)S(C)(=O)=O)C1` (centres unmarked) [Compound 191, N-(3-(3,6-Difluoro-9H-carbazol-9-yl)-2-hydroxy-2-methylpropyl)-N-(3-methylcyclobutyl)methanesulfonamide] had a concentration giving a half-maximal response (EC50) of 1190 nM. `CC1CCCC1N(CC(O)Cn1c2ccccc2c2ccccc21)S(C)(=O)=O` (centres unmarked) [Compound 136, N-(3-(9H-Carbazol-9-yl)-2-hydroxypropyl)-N-(2-methylcyclopentyl)methanesulfonamide] displayed a concentration giving a half-maximal response (EC50) of 113 nM. This EC50 is about 11-fold lower than that of the compound before. For `O=S1(=O)N(CC(O)Cn2c3ccc(F)cc3c3cc(F)ccc32)CCN1C1CCC1` (centres unmarked) [Compound 234], it took 289 nM to reach a half-maximal effect (EC50). This EC50 is about 2.6-fold higher than that of the compound before.

For the compound `CC(O)(Cn1c2ccc(F)cc2c2cc(F)ccc21)C(C)(C)N1CCCS1(=O)=O` (centres unmarked) [Compound 245, 2-(4-(3,6-Difluoro-9H-carbazol-9-yl)-3-hydroxy-2,3-dimethylbutan-2-yl)-isothiazolidine-1,1-dioxide], the midpoint of the response, the EC50, lay at 1150 nM. Consider `CC(O)(CN1CCC(C)(C)S1(=O)=O)Cn1c2ccc(F)cc2c2cc(F)ccc21` (centres unmarked) [Compound 180, 2-(3-(3,6-Difluoro-9H-carbazol-9-yl)-2-hydroxy-2-methylpropyl)-5,5-dimethylisothiazolidine-1,1-dioxide], for which the 50% effective concentration (EC50) worked out at 1650 nM. `CC(O)(CN1CCN(C2CCC2)S1(=O)=O)Cn1c2ccc(F)cc2c2cc(F)ccc21` (centres unmarked) [Compound 235]: it took 6460 nM to reach a half-maximal effect (EC50).

The compound `CC(C)S(=O)(=O)N(Cc1ccco1)CC(O)Cn1c2ccccc2c2ccccc21` (centres unmarked) [Compound 82, N-(3-(9H-Carbazol-9-yl)-2-hydroxypropyl)-N-(furan-2-ylmethyl)propane-2-sulfonamide] gave an EC50 of 158 nM. With `CS(=O)(=O)N(CC(O)Cn1c2ccccc2c2ccccc21)C1(C(F)(F)F)CC1` (centres unmarked) [Compound 145, N-(3-(9H-Carbazol-9-yl)-2-hydroxypropyl)-N-(1-(trifluoromethyl)cyclopropyl)methanesulfonamide] the figure was 1350 nM; with `O=S1(=O)N(CC(O)Cn2c3ccccc3c3ccccc32)CCCC1(F)F` (centres unmarked) [Compound 122, 2-(3-(9H-Carbazol-9-yl)-2-hydroxypropyl)-6,6-difluoro-1,2-thiazinane-1,1-dioxide], 329 nM. Regarding `CS(=O)(=O)N(CC(O)Cn1c2ccccc2c2ccccc21)CC1CC2CCC1O2` (single isomer, unassigned) [Compound 69, N-(7-Oxabicyclo[2.2.1]heptan-2-ylmethyl)-N-(3-(9H-carbazol-9-yl)-2-hydroxypropyl)methanesulfonamide], the response was half-maximal at 759 nM (EC50). As to `O=S1(=O)N(CC(O)Cn2c3ccc(F)cc3c3cc(F)ccc32)CCC1(F)F` (centres unmarked) [Compound 185, 2-(3-(3,6-Difluoro-9H-carbazol-9-yl)-2-hydroxypropyl)-5,5-difluoroisothiazolidine-1,1-dioxide], the EC50 is 45 nM.

As for `CS(=O)(=O)N(CC(O)Cn1c2ccccc2c2ccccc21)c1ccc2sccc2c1` (centres unmarked) [Compound 65, N-(3-(9H-Carbazol-9-yl)-2-hydroxypropyl)-N-(benzo[b]thiophen-5-yl)methanesulfonamide], the midpoint of the response, the EC50, lay at 9500 nM. Against the preceding compound, the EC50 is about 210-fold higher. `CS(=O)(=O)N(CC(O)Cn1c2ccccc2c2ccccc21)c1ccccc1Cl` (centres unmarked) [Compound 77, N-(3-(9H-Carbazol-9-yl)-2-hydroxypropyl)-N-(2-chlorophenyl)methanesulfonamide]: the concentration giving a half-maximal response (EC50) stood at 750 nM. Against the preceding compound, the EC50 is about 13-fold lower.

`CC1CCCC1N(CC(O)Cn1c2ccc(F)cc2c2cc(F)ccc21)S(C)(=O)=O` (centres unmarked) [Compound 193A, N-(3-(3,6-Difluoro-9H-carbazol-9-yl)-2-hydroxypropyl)-N-(2-methylcyclopentyl)methanesulfonamide] yielded an EC50 of 427 nM. This EC50 lies about 1.8-fold lower than the previous one. Consider `CN(CC(O)Cn1c2cc(F)ccc2c2ccc(F)cc21)S(C)(=O)=O` (centres unmarked) [Compound 94, N-(3-(2,7-Difluoro-9H-carbazol-9-yl)-2-hydroxypropyl)-N-methylmethanesulfonamide], for which the EC50 was 3450 nM. This EC50 lies about 8.1-fold higher than the previous one. Regarding `CS(=O)(=O)N(Cc1ccco1)CC(O)Cn1c2ccccc2c2ccc(F)cc21` (centres unmarked) [Compound 237, N-(3-(2-Fluoro-9H-carbazol-9-yl)-2-hydroxy-propyl)-N-(furan-2-yl-methyl)methane-sulfonamide], it took 594 nM to reach a half-maximal effect (EC50).

Regarding `CN1CCN(CC(O)Cn2c3ccc(F)cc3c3cc(F)ccc32)S1(=O)=O` (centres unmarked) [Compound 173], the EC50 came to 86 nM. On to `O=S1(=O)NCCCN1CC(O)Cn1c2ccccc2c2ccccc21` (centres unmarked) [Compound 123, 2-(3-(9H-Carbazol-9-yl)-2-hydroxypropyl)-1,2,6-thiadiazinane-1,1-dioxide], for which the EC50 is 33 nM. With `COCCN(CC(O)Cn1c2ccc(F)cc2c2cc(F)ccc21)S(C)(=O)=O` (centres unmarked) [Compound 90, N-(3-(3,6-Difluoro-9H-carbazol-9-yl)-2-hydroxypropyl)-N-(2-methoxyethyl)methanesulfonamide] the figure was 406 nM; with `O=S1(=O)c2ccccc2CCN1CC(O)Cn1c2ccccc2c2ccccc21` (centres unmarked) [Compound 43, N-(3-(9H-Carbazol-9-yl)-2-hydroxypropyl)-3,4-dihydro-2H-benzo[e][1,2]thiazine 1,1-dioxide], 3000 nM; with `CC(O)(CNS(C)(=O)=O)Cn1c2ccc(F)cc2c2cc(F)ccc21` (centres unmarked) [Compound 152, N-(3-(3,6-Difluoro-9H-carbazol-9-yl)-2-hydroxy-2-methylpropyl)methanesulfonamide], 1910 nM. Compound `CS(=O)(=O)N(CC(O)Cn1c2ccccc2c2ccccc21)c1ccccc1I` (centres unmarked) [Compound 26, N-(3-(9H-Carbazol-9-yl)-2-hydroxypropyl)-N-(2-iodophenyl)methanesulfonamide] gave a 50% effective concentration (EC50) of 1300 nM. This EC50 and that of the compound before are within 1.5-fold of each other.

On to `COc1cccc(N(CC(O)Cn2c3ccccc3c3ccccc32)S(C)(=O)=O)c1` (centres unmarked) [Compound 73, N-(3-(9H-Carbazol-9-yl)-2-hydroxypropyl)-N-(3-methoxyphenyl)methanesulfonamide], for which the EC50 was found to be 2990 nM. `CCCS(=O)(=O)N(Cc1ccco1)CC(O)Cn1c2ccccc2c2ccccc21` (centres unmarked) [Compound 3, N-(3-(9H-Carbazol-9-yl)-2-hydroxypropyl)-N-(furan-2-ylmethyl)propane-1-sulfonamide]: the 50% effective concentration (EC50) worked out at 650 nM. With `CC(=O)Nc1ccc(N(CC(O)Cn2c3ccccc3c3ccccc32)S(C)(=O)=O)cc1` (centres unmarked) [Compound 29, N-(4-(N-(3-(9H-Carbazol-9-yl)-2-hydroxypropyl)methylsulfonamido)phenyl)acetamide] the figure was 710 nM; with `CC1CCCC(N(CC(O)Cn2c3ccccc3c3ccccc32)S(C)(=O)=O)C1` (centres unmarked) [Compound 142, N-(3-(9H-Carbazol-9-yl)-2-hydroxypropyl)-N-(3-methylcyclohexyl)methanesulfonamide], 813 nM. The value for `O=S(=O)(CC1CCCCO1)N(Cc1ccco1)CC(O)Cn1c2ccccc2c2ccccc21` (centres unmarked) [Compound 18, N-(3-(9H-Carbazol-9-yl)-2-hydroxypropyl)-N-(furan-2-ylmethyl)-1-(tetrahydro-2H-pyran-2-yl)methanesulfonamide] was 3760 nM; that for `CC1(N(CC(O)Cn2c3ccc(F)cc3c3cc(F)ccc32)S(C)(=O)=O)CCC1` (centres unmarked) [Compound 186, N-(3-(3,6-Difluoro-9H-carbazol-9-yl)-2-hydroxypropyl)-N-(1-methylcyclobutyl)methanesulfonamide] was 83 nM; that for `CS(=O)(=O)N(CC(O)Cn1c2ccccc2c2ccccc21)C1CCCCC1(F)F` (centres unmarked) [Compound 135, N-(3-(9H-Carbazol-9-yl)-2-hydroxypropyl)-N-(2,2-difluorocyclohexyl)methanesulfonamide] was 609 nM.

For `CCCOc1ccc(N(CC(O)Cn2c3ccc(F)cc3c3cc(F)ccc32)S(C)(=O)=O)cc1` (centres unmarked) [Compound 203, N-(3-(3,6-Difluoro-9H-carbazol-9-yl)-2-hydroxypropyl)-N-(4-propoxyphenyl)methanesulfonamide], the EC50 is 1770 nM. In the case of `CS(=O)(=O)NCC(O)Cn1c2cc(F)ccc2c2ccc(F)cc21` (centres unmarked) [Compound 162, N-(3-(2,7-Difluoro-9H-carbazol-9-yl)-2-hydroxypropyl)methanesulfonamide], the half-maximal effective concentration (EC50) was determined as 1990 nM. With `O=S1(=O)N(CC(O)Cn2c3ccc(F)cc3c3cc(F)ccc32)CCCN1C1CCCC1` (centres unmarked) [Compound 220, 2-(3-(3,6-Difluoro-9H-carbazol-9-yl)-2-hydroxypropyl)-6-cyclopentyl-1,2,6-thiadiazinane-1,1-dioxide] the figure was 1660 nM; with `O=S(=O)(CC(F)F)N(Cc1ccco1)CC(O)Cn1c2ccccc2c2ccccc21` (centres unmarked) [Compound 8, N-(3-(9H-Carbazol-9-yl)-2-hydroxypropyl)-2,2-difluoro-N-(furan-2-ylmethyl)ethanesulfonamide], 6960 nM; with `O=S1(=O)CCCN1CC(O)Cn1c2ccc(F)cc2c2cc(F)ccc21` (centres unmarked) [Compound 87, N-(3-(3,6-Difluoro-9H-carbazol-9-yl)-2-hydroxypropyl)-isothiazolidine-1,1-dioxide], 20 nM. With `CCN1CCCN(CC(C)(O)Cn2c3ccc(F)cc3c3cc(F)ccc32)S1(=O)=O` (centres unmarked) [Compound 227, 2-(3-(3,6-Difluoro-9H-carbazol-9-yl)-2-hydroxy-2-methylpropyl)-6-ethyl-1,2,6-thiadiazinane-1,1-dioxide] the figure was 5290 nM; with `CC1(N(CC(O)Cn2c3ccc(F)cc3c3cc(F)ccc32)S(C)(=O)=O)CC1` (centres unmarked) [Compound 188, N-(3-(3,6-Difluoro-9H-carbazol-9-yl)-2-hydroxypropyl)-N-(1-methylcyclopropyl)methanesulfonamide], 147 nM. The value for `CCOCc1ccc(N(CC(O)Cn2c3ccc(F)cc3c3cc(F)ccc32)S(C)(=O)=O)cc1` (centres unmarked) [Compound 208, N-(3-(3,6-Difluoro-9H-carbazol-9-yl)-2-hydroxypropyl)-N-(4-(ethoxymethyl)phenyl)methanesulfonamide] was 4710 nM. `CC(C)(C(O)Cn1c2ccccc2c2ccccc21)N1CCCS1(=O)=O` (centres unmarked) [Compound 243, 2-(4-(9H-Carbazol-9-yl)-3-hydroxy-2-methylbutan-2-yl)-isothiazolidine-1,1-dioxide]: a half-maximal response (EC50) required 42 nM.
